Literature values, collected in patent publication US20210069187A1, “Stable pharmaceutical composition of Selexipag” (RK Pharma Solutions LLC, priority 2019, published 2021).

Assays:
[1] = not given; remark: listed apart in the source

For `CC(C)N(CCCCOCC(=O)NS(C)(=O)=O)c1cnc(-c2ccccc2)c(-c2ccccc2)n1` [Selexipag, 2-{4-[N-(5,6-diphenylpyrazin-2-yl)-N-isopropylamino]butyloxy}-N-(methylsulfonyl)acetamide], the solubility in water is listed as “practically insoluble”, the “stability in the solid state” value [1] is listed as “very stable” and the hygroscopicity ([1]; solid state) is listed as “not hygroscopic”. The light sensitivity ([1]; solid state) was “not light sensitive”.
